For one test, the target named is hOX1R (Homo sapiens, UniProt O43613). Put plainly: FLIPR Ca2+ Flux Assay, orexin-1 receptor. The test is classed as cell-based. The note with it: CHO cells, agonist 70 pM Ala-6,12 human orexin-A. (In general: Calcium assays in cells follow changes in intracellular calcium, usually with a dye or a luminescent sensor.)
A further test has as its target human orexin-2 receptor (Homo sapiens (Human), UniProt O43614). Put plainly: FLIPR Ca2+ Flux Assay, orexin-2 receptor. The test is classed as cell-based. Particulars: CHO cells, agonist 70 pM Ala-6,12 human orexin-A; read-out: hOX2R FLIPR IC50. How it is done: The utility of the compounds in accordance with the present invention as orexin receptor OX1R and/or OX2R antagonists may be readily determined without undue experimentation by methodology well known in the art, including the “FLIPR Ca^2+ Flux Assay” (Okumura et al., Biochem. Biophys. Res. Comm. 280:976-981, 2001). In a typical experiment the OX1 and OX2 receptor antagonistic activity of the compounds of the present invention was determined in accordance with the following experimental method. For intracellular calcium measurements, Chinese hamster ovary (CHO) cells expressing the rat orexin-1 receptor or the human orexin-2 receptor, are grown in Iscove's modified DMEM containing 2 mM L-glutamine, […], 1% hypoxanthine-thymidine supplement, 100 U/ml penicillin, 100 μg/ml streptomycin and 10% heat-inactivated fetal calf serum (FCS). The cells are seeded at 20,000 cells/well into Becton-Dickinson black 384-well clear bottom sterile plates coated with poly-D-lysine. All reagents were from GIBCO-Invitrogen Corp. The seeded plates are incubated overnight at 37° C. and 5% CO2. Ala-6,12 human orexin-A as the agonist is prepared as a 1 mM stock solution in 1% bovine serum albumin (BSA) and diluted in assay buffer (HBSS containing 20 mM HEPES, 0.1% BSA and 2.5 mM probenecid, pH7.4) for use in the assay at a final concentration of 70 pM. Test compounds are prepared as 10 mM stock solution in DMSO, then diluted in 384-well plates, first in DMSO, then assay buffer. On the day of the assay, cells are washed 3 times with 100 μl assay buffer and then incubated for 60 min (37° C., 5% CO2) in 60 μl assay buffer containing 1 μM Fluo-4AM ester, 0.02% pluronic acid, and 1% BSA. The dye loading solution is then aspirated and cells are washed 3 times with 100 μl assay buffer. 30 μl of that same buffer is left in each well. Within the Fluorescent Imaging Plate Reader (FLIPR, Molecular Devices), test compounds are added to the plate in a volume of 25 μl, incubated for 5 min and finally 25 μl of agonist is added. Fluorescence is measured for each well at 1 second intervals for 5 minutes and the height of each fluorescence peak is compared to the height of the fluorescence peak induced by 70 pM Ala-6,12 orexin-A with buffer in place of antagonist. For each antagonist, IC50 value (the concentration of compound needed to inhibit 50% of the agonist response) is determined. Alternatively, compound potency can be assessed by a radioligand binding assay (described in Bergman et. al. Bioorg. Med. Chem. Lett. 2008, 18, 1425-1430) in which the inhibition constant (Ki) is determined in membranes prepared from CHO cells expressing either the OX1 or OX2 receptor. The intrinsic orexin receptor antagonist activity of a compound which may be used in the present invention may be determined by these assays.

Each structure is given as a SMILES string.

human orexin-2 receptor, sequence (O43614 whole entry): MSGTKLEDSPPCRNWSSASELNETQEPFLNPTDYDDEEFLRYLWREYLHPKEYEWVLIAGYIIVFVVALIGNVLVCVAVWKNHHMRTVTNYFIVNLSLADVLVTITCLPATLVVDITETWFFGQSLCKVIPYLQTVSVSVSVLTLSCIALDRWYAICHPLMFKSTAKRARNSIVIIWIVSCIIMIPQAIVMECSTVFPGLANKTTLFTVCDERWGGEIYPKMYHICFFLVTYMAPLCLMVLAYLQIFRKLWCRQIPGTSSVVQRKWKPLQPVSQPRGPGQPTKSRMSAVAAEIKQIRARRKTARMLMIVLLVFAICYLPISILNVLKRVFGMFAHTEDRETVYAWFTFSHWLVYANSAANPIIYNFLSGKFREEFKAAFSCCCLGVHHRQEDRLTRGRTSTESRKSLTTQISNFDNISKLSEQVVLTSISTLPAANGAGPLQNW

As usually defined, the IC50 is the point on the concentration scale where inhibition reaches its midpoint. `Cc1ccnc(S[C@@H]2CC[C@@H](C)N(C(=O)c3ccccc3-n3nccn3)C2)c1` [Example 11, 4-methyl-2-{[(3R,6R)-6-methyl-1-{[2-(2H-1,2,3-triazol-2-yl)phenyl]carbonyl}piperidin-3-yl]sulfanyl}pyridine]: the concentration for half-maximal inhibition (IC50) at hOX1R is 440 nM; on human orexin-2 receptor, 20 nM.
On the same counts, the results for `CC(C)Oc1ccccc1C(=O)N1C[C@H](Sc2cc(C#N)ccn2)CC[C@H]1C` [Example 33, 2-{[(3R,6R)-6-methyl-1-{[2-(1-methylethoxy)phenyl]carbonyl}piperidin-3-yl]sulfanyl}pyridine-4-carbonitrile] are 6840 nM and 29.4 nM.
On the same counts, the results for `C[C@@H]1CC[C@@H](Sc2cc(C#N)ccn2)CN1C(=O)c1ccccc1N1CCCC1` [Example 39, 2-({(3R,6R)-6-methyl-1-[(2-pyrrolidin-1-ylphenyl)carbonyl]piperidin-3-yl}sulfanyl)pyridine-4-carbonitrile] are 10000 nM and 103 nM.
On the same counts, the results for `COc1cccc(-n2nccn2)c1C(=O)N1C[C@H](Sc2cc(C#N)ccn2)CC[C@H]1C` [Example 17, 2-{[(3R,6R)-1-{[2-methoxy-6-(2H-1,2,3-triazol-2-yl)phenyl]carbonyl}-6-methylpiperidin-3-yl]sulfanyl}pyridine-4-carbonitrile] are 5880 nM and 51.2 nM.
As to `C[C@@H]1CC[C@@H](Sc2cc(C#N)ccn2)CN1C(=O)c1ccccc1-n1nccn1` [Example 9, 2-{[(3R,6R)-6-methyl-1-{[2-(2H-1,2,3-triazol-2-yl)phenyl]carbonyl}piperidin-3-yl]sulfanyl}pyridine-4-carbonitrile], the IC50 on hOX1R is 1410 nM; on human orexin-2 receptor it was 13.5 nM.
Take `C[C@@H]1CC[C@@H](Sc2ccccn2)CN1C(=O)c1ccccc1-n1nccn1` [Example 7, 2-{[(3R,6R)-6-methyl-1-{[2-(2H-1,2,3-triazol-2-yl)phenyl]carbonyl}piperidin-3-yl]sulfanyl}pyridine]: the figures for the concentration for half-maximal inhibition (IC50) on hOX1R and on human orexin-2 receptor were 1630 nM and 179 nM, respectively.
On the same counts, the results for `C[C@@H]1CC[C@@H](Sc2cc(C#N)ccn2)CN1C(=O)c1cccnc1-c1ccccc1` [Example 32, 2-({(3R,6R)-6-methyl-1-[(2-phenylpyridin-3-yl)carbonyl]piperidin-3-yl}sulfanyl)pyridine-4-carbonitrile] are 10000 nM and 71.9 nM.
On the same counts, the results for `C[C@@H]1CC[C@@H](Sc2cc(C#N)ccn2)CN1C(=O)c1ccc(F)cc1-n1nccn1` [Example 21, 2-{[(3R,6R)-1-{[4-fluoro-2-(2H-1,2,3-triazol-2-yl)phenyl]carbonyl}-6-methylpiperidin-3-yl]sulfanyl}pyridine-4-carbonitrile] are 2720 nM and 26.1 nM.
On the same counts, the results for `C[C@@H]1CC[C@@H](Sc2cc(C#N)ccn2)CN1C(=O)c1ccccc1C1CC1` [Example 30, 2-({(3R,6R)-1-[(2-cyclopropylphenyl)carbonyl]-6-methylpiperidin-3-yl}sulfanyl)pyridine-4-carbonitrile] are 4070 nM and 18.3 nM.
Regarding `C[C@@H]1CC[C@@H](Sc2cc(C#N)ccn2)CN1C(=O)c1cc(Cl)ccc1-n1nccn1` [Example 25, 2-{[(3R,6R)-1-{[5-chloro-2-(2H-1,2,3-triazol-2-yl)phenyl]carbonyl}-6-methylpiperidin-3-yl]sulfanyl}pyridine-4-carbonitrile], the values for the IC50 at hOX1R and on human orexin-2 receptor were 4860 nM and 214 nM, respectively.
On the same counts, the results for `C[C@@H]1CC[C@@H](Sc2cc(C#N)ccn2)CN1C(=O)c1ccccc1-c1cnn(C)c1` [Example 31, 2-{[(3R,6R)-6-methyl-1-{[2-(1-methyl-1H-pyrazol-4-yl)phenyl]carbonyl}piperidin-3-yl]sulfanyl}pyridine-4-carbonitrile] are 3190 nM and 30.3 nM.
The corresponding values for `COC(=O)c1cccnc1S[C@@H]1CC[C@@H](C)N(C(=O)c2ccccc2-n2nccn2)C1` [Example 3, methyl 2-{[(3R,6R)-6-methyl-1-{[2-(2H-1,2,3-triazol-2-yl)phenyl]carbonyl}piperidin-3-yl]sulfanyl}pyridine-3-carboxylate] are 48.1 nM and 23.9 nM.
The corresponding values for `C[C@@H]1CC[C@@H](Sc2cc(C#N)ccn2)CN1C(=O)c1ccccc1C1CCCCO1` (stereo partly drawn) [Example 38, 2-{[(3R,6R)-6-methyl-1-{[2-(tetrahydro-2H-pyran-2-yl)phenyl]carbonyl}piperidin-3-yl]sulfanyl}pyridine-4-carbonitrile] are 10000 nM and 36.6 nM.
For `C[C@@H]1CC[C@@H](Sc2cc(C#N)ccn2)CN1C(=O)c1c(F)cccc1-n1nccn1` [Example 16, 2-{[(3R,6R)-1-{[2-fluoro-6-(2H-1,2,3-triazol-2-yl)phenyl]carbonyl}-6-methylpiperidin-3-yl]sulfanyl}pyridine-4-carbonitrile], the half-inhibitory concentration (IC50) at hOX1R is 2350 nM; on human orexin-2 receptor, 51.4 nM.
The corresponding values for `C[C@@H]1CC[C@@H](Sc2cc(C#N)ccn2)CN1C(=O)c1ccccc1-c1ccccc1` [Example 28, 2-{[(3R,6R)-1-(biphenyl-2-ylcarbonyl)-6-methylpiperidin-3-yl]sulfanyl}pyridine-4-carbonitrile] are 279 nM and 16.7 nM.
For `C[C@@H]1CC[C@@H](Sc2cc(C#N)ccn2)CN1C(=O)c1cc(Br)ccc1-n1nccn1` [Example 24, 2-{[(3R,6R)-1-{[5-bromo-2-(2H-1,2,3-triazol-2-yl)phenyl]carbonyl}-6-methylpiperidin-3-yl]sulfanyl}pyridine-4-carbonitrile], the 50% inhibitory concentration (IC50) on hOX1R was determined as 489 nM; at human orexin-2 receptor it was 14.9 nM.
The corresponding values for `COc1ccc(C(=O)N2C[C@H](Sc3cc(C#N)ccn3)CC[C@H]2C)c(-n2nccn2)n1` [Example 14, 2-{[(3R,6R)-1-{[6-Methoxy-2-(2H-1,2,3-triazol-2-yl)pyridin-3-yl]carbonyl}-6-methylpiperidin-3-yl]sulfanyl}pyridine-4-carbonitrile] are 10000 nM and 149 nM.
On the same counts, the results for `C[C@@H]1CC[C@@H](Sc2ncccc2C(=O)O)CN1C(=O)c1ccccc1-n1nccn1` [Example 48, 2-{[(3R,6R)-6-Methyl-1-{[2-(2H-1,2,3-triazol-2-yl)phenyl]carbonyl}piperidin-3-yl]sulfanyl}pyridine-3-carboxylic acid] are 6540 nM and 626 nM.
On the same counts, the results for `C[C@@H]1CC[C@@H](Sc2cc(C#N)ccn2)CN1C(=O)c1ccsc1-c1ncccn1` [Example 40, 2-({(3R,6R)-6-Methyl-1-[(2-pyrimidin-2-ylthiophen-3-yl)carbonyl]piperidin-3-yl}sulfanyl)pyridine-4-carbonitrile] are 2240 nM and 19 nM.
For `COc1ccc(C(=O)N2C[C@H](Sc3cc(C#N)ccn3)CC[C@H]2C)c(-c2ncccn2)n1` [Example 43, 2-({(3R,6R)-1-[(6-methoxy-2-pyrimidin-2-ylpyridin-3-yl)carbonyl]-6-methylpiperidin-3-yl}sulfanyl)pyridine-4-carbonitrile], the results for the half-maximal inhibitory concentration (IC50) on hOX1R and at human orexin-2 receptor were 10000 nM and 864 nM, respectively.
Consider `Cc1ccnc(S[C@@H]2CC[C@@H](C)N(C(=O)c3ccccc3-n3nccn3)C2)c1C#N` [Example 10, 4-methyl-2-{[(3R,6R)-6-methyl-1-{[2-(2H-1,2,3-triazol-2-yl)phenyl]carbonyl}piperidin-3-yl]sulfanyl}pyridine-3-carbonitrile], for which the values for the IC50 on hOX1R and at human orexin-2 receptor were 634 nM and 24.2 nM, respectively.
The corresponding values for `C[C@@H]1CC[C@@H](Sc2cc(C#N)ccn2)CN1C(=O)c1ccccc1Oc1ccccc1` [Example 29, 2-({(3R,6R)-6-methyl-1-[(2-phenoxyphenyl)carbonyl]piperidin-3-yl}sulfanyl)pyridine-4-carbonitrile] are 10000 nM and 62.7 nM.
For `CSc1ccccc1C(=O)N1C[C@H](Sc2cc(C#N)ccn2)CC[C@H]1C` [Example 34, 2-{[(3R,6R)-6-methyl-1-{[2-(methylsulfanyl)phenyl]carbonyl}piperidin-3-yl]sulfanyl}pyridine-4-carbonitrile], the IC50 was 8720 nM at hOX1R and 75.4 nM at human orexin-2 receptor.

The values above are taken from US9617246B2, “Thioether-piperidinyl orexin receptor antagonists” (MERCK SHARP & DOHME CORP., priority 2013, dated 2017).
